{"source": "patent US20240293314A1", "about": "“COMPOSITION FOR PARTICLE-MEDIATED TRANSPORT OF A DISSOLVED ACTIVE AGENT INTO HAIR FOLLICLES” (Charité – Universitätmedizin Berlin, priority 2021, published 2024)", "key": {"[1]": {"format": "in vitro ADME", "text": "FIG. 1: Confocal microscopic image of a skin section with hair follicle after topical application of fluorescein natrium salt (green fluorescent dye) dissolved in dispersion medium together with a caffeine nanosuspension.\nParticle-containing formulations were applied as dispersions (particles in a liquid or semi-solid dispersion medium). Besides the particles, the dispersion medium also contained dissolved molecules, name the fluorescent molecule fluorescein, which is an organic compound soluble in water and alcohol."}, "[2]": {"format": "in vitro ADME, porcine", "settings": "pig, 1 h, 0.003 % w/w", "procedure": "Three particle-free and three particle-containing formulations were prepared, each containing 0.003% F (dissolved in dispersion medium), and the penetration of F into hair follicles (HF) was studied.\nFluorescein (0.003% w/w) was added to dispersion media that contained no particles (water, TPGS-solution (1% w/w) or ethanol (96% v/v)) and was added to dispersion media that contained particles (1. curcumin nanocrystals (5% w/w dispersed in TPGS solution (1% w/w)—particle size was 257 nm, polydispersity index 0.26 determined by photon correlation spectroscopy); 2. quercetin nanocrystals (5% w/w dispersed in TPGS solution (1% w/w)—particle size was 580 nm, polydispersity index 0.36, determined by photon correlation spectroscopy); 3. Lipid nanoparticles (10% w/w dispersed in TPGS solution (1% w/w)—particle size was 195 nm, polydispersity index 0.09, determined by photon correlation spectroscopy).\nThe formulations (50 μl on a skin areal of 4 cm^2) were applied on fresh porcine ears (ventral side, massage for 60 s, penetration time 1 h at 32° C.). Skin biopsies (Ø 15 mm) were obtained from the treated skin areas from which skin sections (40 μm, 100 sections/biopsy) were prepared. The skin sections and the hair follicle sections were analyzed by epifluorescence microscopy. Images were taken and the penetration depth of the fluorescein was directly measured (n=3). […]"}}, "data": [{"smiles": "O=C1OC2(c3ccc(O)cc3Oc3cc(O)ccc32)c2ccccc21", "note": "[F, Fluorescein]", "values": [{"measurement": "penetration into the hair follicles", "setting": "[1]", "value": "no efficient penetration into the hair follicles"}, {"measurement": "penetration depth with particles compared to the particle-free formulations", "setting": "[2]", "value": "> 160", "unit": "%"}]}]}
